The record followed here is patent publication US12017996B2, “Substituted quinolines and formulations thereof” (JIANGSU MEDOLUTION LTD, priority 2021, dated 2024).

Format in all cases: physicochemical
The nature of data set [1]: Solubility of Compound A in solvents. The source says: (§1) For example, Compound A is soluble in acetic acid and hydrochloric acid solution (0.1 M). […] Compound A's dissociation constants: pKa1 is 4.99; pKa2 is 10.26.
The nature of data set [2]: Compatibility test of excipients (impurities over time). Here is the method: Each of mannitol, sodium starch glycolate, hydroxpropyl cellulose and glyceryl behenate was individually mixed with Compound A. The resulting mixture was tested for the impurities over time under the following conditions: lumination 4500±500 Lux; high humidity at 90±5%; high temperature at 40±2° C.; and accelerated condition at humidity of 75±5% and temperature of 40±2° C. Testing were done at day 0, day 7 and day 14. The percentage of the total impurities and the SZMD4-Z8 impurity were recorded together with other data.

A further data set can be described thus: Dissociation constants.
Source text: as §1

Setting [3] is: high temperature 40±2° C., day 7.
Where [4] appears, read: high temperature 40±2° C., day 14.
Setting [5] is: lumination 4500±500 Lux, day 14.

As to `C#Cc1cccc(Nc2c(C#N)cnc3cc(OCC)c(NC(=O)/C=C/CN(C)C)cc23)c1.O=C(O)/C=C\C(=O)O` [Compound A, (E)-N-[3-cyano-7-ethoxy-4-(3-ethynylanilino)-6-quinolyl]-4-(dimethylamino)but-2-enamide maleate], the solubility result is “soluble” in data set [1] (in acetic acid); “slightly soluble” in data set [1] (in acetonitrile); “slightly soluble” in data set [1] (in ethanol); “soluble” in data set [1] (in hydrochloric acid solution (0.1 M)); “hardly soluble” in data set [1] (in n-propanol); “not soluble” in data set [1] (in sodium hydroxide solution (0.1 M)). Further, in data set [1] (in water), the solubility entry was “extremely slightly soluble”. Also, the SZMD4-Z8 impurity in data set [2] (day 0) is on record as 0.03%; in data set [2] (high humidity 90±5%, day 7) it was 0.04%; in data set [2] (high humidity 90±5%, day 14) it was 0.04%; in data set [2] (setting [3]), 0.03%; in data set [2] (setting [4]), 0.03%; in data set [2] (lumination 4500±500 Lux, day 7), 0.03%. Further, the SZMD4-Z8 impurity in data set [2] (setting [5]) came to 0.03%. Besides, the “Total Impurities” value is 0.29% in data set [2] (day 0); 0.31% in data set [2] (high humidity 90±5%, day 7); 0.30% in data set [2] (high humidity 90±5%, day 14); 0.31% in data set [2] (setting [3]); 0.30% in data set [2] (setting [4]); 0.40% in data set [2] (lumination 4500±500 Lux, day 7). For the same molecule, the “Total Impurities” value in data set [2] (setting [5]) is given as 0.44%%. In addition, in the data set “Dissociation constants”, the “dissociation constant pKa1” value was determined as 4.99. The “dissociation constant pKa2” value in the data set “Dissociation constants” turned out to be 10.26.
